How the values were obtained:
[1] = test system: P. aeruginosa ATCC 9027; assay: AATCC 100-2012 antimicrobial performance of treated textile, P. aeruginosa; format: cell-based
Method: (§1) Antimicrobial performance of antimicrobial textiles according to the invention were performed following the AATCC 100-2012 test method. The AATCC 100-2012 test procedure for antimicrobial performance is described in detail in AATCC Technical Manual 2013, p. 166-168. Briefly, 3 circular swatches of 48 mm diameter were prepared from autoclaved (121° C., 15 min) textile samples, and a defined number of swatches was added to a 250 ml Erlenmeyer flask. 1 ml of prepared inoculum (in phosphate buffered water) was spot onto the swatches. […] The 0 minute contact time was immediately analyzed after inoculation. For the other contact times, the Erlenmeyer flask was sealed immediately after inoculation and incubated at 37° C. for the respective contact times. After the defined contact time, 100 ml of Dey-Engley Neutralizing broth was added to each flask, and the flask was shaken for one minute by hand. A dilution series was prepared and each dilution sample was plated on a nutrient agar. Agar plates were incubated at 37° C. for 24 and 48 hours. The Log Reduction (R) of bacteria was calculated by: B[log(number bacteria recovered from the inoculated treated test specimen swatches in the jar immediately after inoculation, i.e. at 0 contact time)]−A[log(number of bacteria recovered from the inoculated treated test specimen swatches in the jar incubated over the desired contact period)].

[2] = test system: E. coli; assay: AATCC 100-2012 antimicrobial performance of treated textile, E. coli; format: cell-based
[3] = test system: S. aureus ATCC 6538; assay: AATCC 100-2012 antimicrobial performance of treated textile, S. aureus; format: cell-based, Staphylococcus aureus
Method: as §1

| SMILES | Log Reduction (R) after 30 min, P. aeruginosa ([1]; Table 2, 100% viscose, L-carnitine, 0 or 10 washes per sample ID, 30 min contact) | reduction of P. aeruginosa after 30 minutes ([1]; Table 2 textiles, L-carnitine on viscose, 30 min) | reduction of E. coli after 24 hours ([2]; Table 10, L-arginine 12% on cotton) | Log Reduction (R) after 24 hours against E. coli, wash cycle 0 (unwashed) ([2]; Table 10, 100% cotton, L-arginine 120 gpl, liquor pH per sample ID, unwashed, 24 hours) | Log Reduction (R) after 1 hour, S. aureus ([3]; Table 1, 100% viscose, L-arginine, 10 washes, 1 hour contact) | reduction of S. aureus after 1 hour ([3]; Table 1 textiles, L-arginine on viscose, 1 hour) | Log Reduction (R) after 10 min, P. aeruginosa ([1]; Table 1, 100% viscose, L-arginine, 10 washes, 10 min contact) | reduction of P. aeruginosa after 10 minutes ([1]; Table 1 textiles, L-arginine on viscose, 10 min) |
| --- | --- | --- | --- | --- | --- | --- | --- | --- |
| C[N+](C)(C)C[C@H](O)CC(=O)O [L-carnitine] | 2.82 Log cfu/ml | > 99% |  |  |  |  |  |  |
| N=C(N)NCCC[C@H](N)C(=O)O [L-arginine] |  |  | > 99.99% | > 4.41 Log cfu/ml | about 1 Log cfu/ml | about 90% | 2.76 Log cfu/ml | > 99% |
